Assay results published in patent US20120010235A1, “N-SUBSTITUTED PYRROLIDINES” (priority 2010, published 2012).

Test system: SJSA, an osteocarcinoma cell line
Experiment: antiproliferative activity assay (tetrazolium dye, MTT) in SJSA cells
Settings: cell-based MTT assay, inhibition of cell proliferation, read-out: TT IC50
Protocol: The pharmacological properties of the compounds of this invention may be confirmed by a number of pharmacological assays. The exemplified antiproliferative activity assay which follows has been carried out with the compounds according to the invention.
Cell proliferation was evaluated by the tetrazolium dye assay according to the procedure of Denizot and Lang (Denizot, F. and Lang, R. (1986) Rapid colorimetric assay for cell growth and survival. Modification to the terrazolium dye procedure giving improved sensitivity and reliability. J. Immunol. Methods 89, 271-277). The cell line used was SJSA, an osteocarcinoma cell line obtained from the American Type Cell Culture Collection (ATCC; Rockville, Md.). The cells were grown in PRMI with 10% FBS (Fetal Bovine Serum, Invitrogen).
Cells were plated at the appropriate seeding density to give logarithmic growth over the course of the assay in a 96-well tissue culture plate. Plates were incubated overnight at 37° C. in a humidified incubator with 5% CO2. The next day, test compounds were serially diluted 1:3 in the appropriate medium containing 3% DMSO. One-tenth final volume of each dilution was added […] to the plates containing cells. The same volume of 3% DMSO in medium was added to a row of control wells. Thus, the final concentration of DMSO in all wells was 0.3%. The plates were returned to the incubator, and at set time points (determined by their growth curves) plates were analyzed as follows: 3-(4,5-dimethylthiazole-2-yl)-2,5-diphenyl-2H-tetrazolium bromide (thiazolyl blue; MTT; Sigma) was added to each well to yield a final concentration of 1 mg/ml. Plates were returned to the incubator for 2.5 hours. The MTT-containing medium was removed and the resulting formazan metabolite was solubilized in 100% ethanol with shaking for 15 minutes at room temperature. Absorbances were read in a microtiter plate reader at a wavelength of 570 nm with a 650 nm reference. Percent inhibition (% INH) was calculated by subtracting the blank from all wells, then subtracting the ratio of the average absorbance of each triplicate (SAVE) by the average of the controls (CAVE) from 1.00. The final product was then multiplied by 100 (% INH=(1.00−SAVE/CAVE)×100). The concentration at which 50% inhibition (IC50) of cell proliferation is obtained was determined from the linear regression of a plot of the logarithm of the concentration versus percent inhibition.

Compound: CNC(=O)c1ccc(NC(=O)[C@H]2[C@H](c3cccc(Cl)c3F)[C@@](C#N)(c3ccc(Cl)cc3F)[C@H](CC(C)(C)C)N2C)c(OC)c1 (racemic) [Example 51, rac-(2R,3S,4R,5S)-3-(3-chloro-2-fluoro-phenyl)-4-(4-chloro-2-fluoro-phenyl)-4-cyano-5-(2,2-dimethyl-propyl)-1-methyl-pyrrolidine-2-carboxylic acid (2-methoxy-4-methylcarbamoyl-phenyl)-amide]
- IC50: 0.46 µM
